Test [1] has as its target T1, delta-5-desaturase (Rattus norvegicus, UniProt Q920R3).
T1 construct: a rat liver microsome fraction (10 μl) diluted to 3 mg/ml with a microsome buffer; from tissue; host or cells: rat liver microsome fraction
Put plainly: Inhibitory activity on binding of [3H]-labelled Reference Example 1 ligand to delta-5-desaturase (rat liver microsome fraction). The following applies: test compound 10 μM, 3 nM tritiated ligand of Reference Example 1, read-out: Binding inhibitory activity against compound bind to delta-5-desaturase Binding inhibition rate (%) at 10 μM. On the procedure: Inhibitory Activity on Binding of N-[2-({4-oxo-3-[4-(2,2,2-trifluoroethoxy)[2,6-^3H2]phenyl]-3,4-dihydrothieno[3,4-d]pyrimidin-2-yl}sulfanyl)ethyl]acetamide (Reference Example 1) to delta-5-desaturase)
All tests were performed at room temperature at 200 μL/well. A rat liver microsome fraction (30 μg/well) was preincubated with a test compound at a final concentration of 10 μM for 15 min in an assay buffer (10 mM Tris-HCl (pH 7.5), 100 mM KCl, 10 mM NaF, 3 mM MgCl2, 0.005% Tween20 and 1 mM GSH). N-[2-({4-oxo-3-[4-(2,2,2-trifluoroethoxy) [2,6-^3H2]phenyl]-3,4-dihydrothieno[3,4-d]pyrimidin-2-yl}sulfanyl)ethyl]acetamide was added to a final concentration of 3 nM and the mixture was incubated for 150 min. For Bound/Free separation, the membrane fraction was added on a GF/C glass filter using a cell harvester. The GF/C glass filter was washed 5 times with 300 μl of ice-cooled assay buffer (without 0.005% Tween) to separate the ligand bound to delta-5-desaturase. 50 μl of MicroScinti 0 was added, and the radioactivity on the filter was measured by TopCount. To evaluate non-specific binding, 10 μM N-[2-({4-oxo-3-[4-(2,2,2-trifluoroethoxy)phenyl]-3,4-dihydrothieno[3,4-d]pyrimidin-2-yl}sulfanyl)ethyl]acetamide was used. The inhibitory rate (%) of the test compound (10 μM) on the binding of N-[2-({4-oxo-3-[4-(2,2,2-trifluoroethoxy) [2,6-^3H2]phenyl]-3,4-dihydrothieno[3,4-d]pyrimidin-2-yl}sulfanyl)ethyl]acetamide to delta-5-desaturase was determined.
(Liver microsomes are vesicles of endoplasmic reticulum, rich in cytochrome P450 enzymes.)

For test [2], the target named is T1, delta-5-desaturase. Nature of the test: Delta-5-desaturase inhibitory activity using rat liver microsome. The class given is biochemical. Particulars: test compound 10 μM. On the procedure: Delta-5-Desaturase Inhibitory Activity Using Rat Liver Microsome
The inhibitory activity of the test compound on delta-5-desaturase was measured by the method described below. To a solution of the test compound in DMSO prepared in advance was secondarily diluted with a buffer (300 mM NaH2PO4 [pH 7.4], 450 mM KCl, 30 mM NaF, 9 mM MgCl2, 4.5 mM glutathione [reduced form], 0.3% BSA [fatty acid free, SIGMA]) to give an assay buffer. The assay buffer (10 μl) was dispensed to a polypropylene deep 96-well block, and a rat liver microsome fraction (10 μl) diluted to 3 mg/ml with a microsome buffer (10 mM Tris-HCl [pH 7.4], 1 mM EDTA, 250 mM sucrose) was added. The enzyme reaction was started by adding 9 mM NADH, 9 mM ATP, 0.9 mM CoA, 10 μCi/ml (8E,11E,14E)-(1-^14C)eicosa-8,11,14-trienoic acid (PerkinElmer Inc.) (10 μl). The enzyme reaction was performed for 120 min at room temperature, and discontinued by the addition of 10 μl of 2.5M NaOH. After discontinuation of the reaction, the plate was sealed and incubated overnight at 55° C. to allow saponification. The fatty acid was extracted with solvent based on the Bligh & Dyer method described in Can. J. Biochem. Physiol., vol. 37, page 911 (1959) by adding formic acid:methanol:chloroform (1:6:3) (200 μl), maintaining the single layer state, sufficiently stirring the mixture and adding pure water (120 μl) for separation into two layers. The lower chloroform layer (10 μl) was spotted on a reversed-phase TLC plate (RP-18, 1154230001, Merck Japan, Ltd.), developed with acetonitrile:pure water:acetic acid (95:4.5:0.5), and the dried TLC plate was transcribed on Imaging Plate (Fuji Photo Film Co., Ltd.) for 5 hr or longer. The detection was performed using BAS-5000 (Fuji Photo Film Co., Ltd.), and the obtained spot image was numerically converted by Multi Gauge Ver2.3 (Fuji Photo Film Co., Ltd.) and a delta-5-desaturase inhibitory rate (%) of 10 μM test compound was determined.

Test [3] addresses T2, delta-5-desaturase (Homo sapiens, UniProt O60427).
T2 construct: endogenous in cells; host or cells: HepG2
Nature of the test: Delta-5-desaturase inhibitory activity using HepG2 cell. The following applies: test compound 1 μM. The class given is cell-based. On the procedure: Delta-5-Desaturase Inhibitory Activity Using HepG2 Cell
HepG2 was plated on a 96-well plate at 1×10^5 cells/well, and cultured overnight in DMEM (Dulbecco's modified Eagle medium) containing 10% FBS (fetal bovine serum). After washing (200 μL×2) with PBS (phosphate buffered saline), 40 μL of a reaction medium (DMEM, penicillin/streptomycin, 0.3% BSA) containing the test compound was added, and the mixture was preincubated in a CO2 incubator at 37° C. for 30 min. The reaction was started by adding a reaction medium (20 μL) containing 0.1 μCi [^14C]Eicosatrienoic acid, and the mixture was incubated in a CO2 incubator at 37° C. Incubation was performed for 3 hr, the cells were washed twice with 200 μL of PBS, detached with 50 μL of trypsin-EDTA and placed on a 96-deep well block. Furthermore, 20 μL of 2.5N NaOH was added, the plate was sealed and incubated overnight at 55° C. to allow saponification. The fatty acid extraction included acidifying with 10 μL of formic acid, adding chloroform:methanol (1:4), stirring, and further adding 200 μL of pure water to separate into two layers. The operation after development with TLC followed the method of detection system using TLC in a system using a rat liver microsome. A delta-5-desaturase inhibitory rate (%) of 1 μM test compound was determined.

T2 sequence (O60427 whole entry): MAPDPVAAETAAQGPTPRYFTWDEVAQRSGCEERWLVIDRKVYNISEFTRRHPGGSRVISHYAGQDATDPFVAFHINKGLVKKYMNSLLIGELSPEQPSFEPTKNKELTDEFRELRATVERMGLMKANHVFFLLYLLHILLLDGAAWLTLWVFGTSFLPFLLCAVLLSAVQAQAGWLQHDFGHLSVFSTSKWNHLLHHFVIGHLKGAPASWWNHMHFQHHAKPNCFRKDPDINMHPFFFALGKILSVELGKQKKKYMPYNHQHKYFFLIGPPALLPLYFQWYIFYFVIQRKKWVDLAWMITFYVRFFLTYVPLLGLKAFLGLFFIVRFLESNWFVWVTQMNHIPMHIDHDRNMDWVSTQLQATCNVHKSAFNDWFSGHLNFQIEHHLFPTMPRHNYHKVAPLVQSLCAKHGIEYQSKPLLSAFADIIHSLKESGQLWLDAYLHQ
T1 sequence (Q920R3 whole entry): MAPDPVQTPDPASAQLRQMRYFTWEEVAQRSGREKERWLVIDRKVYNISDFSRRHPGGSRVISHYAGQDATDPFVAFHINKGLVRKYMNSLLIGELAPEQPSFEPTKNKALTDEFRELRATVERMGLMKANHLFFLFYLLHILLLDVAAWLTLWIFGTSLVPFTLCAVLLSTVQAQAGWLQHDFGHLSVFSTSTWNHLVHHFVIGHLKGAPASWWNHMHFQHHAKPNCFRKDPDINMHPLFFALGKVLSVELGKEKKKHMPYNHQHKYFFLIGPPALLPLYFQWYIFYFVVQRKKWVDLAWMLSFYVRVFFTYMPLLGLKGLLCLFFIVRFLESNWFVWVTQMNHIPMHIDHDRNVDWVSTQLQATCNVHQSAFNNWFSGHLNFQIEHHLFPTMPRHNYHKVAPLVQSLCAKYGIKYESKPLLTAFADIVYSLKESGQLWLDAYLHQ

For `CCSc1nc2c(ccc(=O)n2C)c(=O)n1-c1ccc(OCC(F)(F)F)cc1` [Example 8, 2-(ethylsulfanyl)-8-methyl-3-[4-(2,2,2-trifluoroethoxy)phenyl]pyrido[2,3-d]pyrimidine-4,7(3H,8H)-dione], the inhibition at 10 µM on delta-5-desaturase [1] was determined as 96%; against delta-5-desaturase [2], 99%. The inhibition at 1 µM against delta-5-desaturase [3] was found to be 103%.

In the case of `COc1ccc2c(=O)n(-c3ccc(OCC(F)(F)F)cc3)c(OCC(F)(F)F)nc2n1` [Example 5, 7-methoxy-2-(2,2,2-trifluoroethoxy)-3-[4-(2,2,2-trifluoroethoxy)phenyl]pyrido[2,3-d]pyrimidin-4(3H)-one], the inhibition at 10 µM on delta-5-desaturase [1] is 93%; at delta-5-desaturase [2], 101%. Moreover, the inhibition at 1 µM against delta-5-desaturase [3] was 95%.

For the molecule `CCSc1nc2[nH]c(=O)ccc2c(=O)n1-c1ccc(OCC(F)(F)F)cc1` [Example 6, 2-(ethylsulfanyl)-3-[4-(2,2,2-trifluoroethoxy)phenyl]pyrido[2,3-d]pyrimidine-4,7(3H,8H)-dione], the inhibition at 10 µM was found to be 97% at delta-5-desaturase [1] and 99% against delta-5-desaturase [2]. Besides, the inhibition at 1 µM against delta-5-desaturase [3] came out at 101%.

For `CS(=O)(=O)CCCOc1nc2[nH]c(=O)ccc2c(=O)n1-c1ccc(OCC(F)(F)F)cc1` [Example 13, 2-[3-(methylsulfonyl)propoxy]-3-[4-(2,2,2-trifluoroethoxy)phenyl]pyrido[2,3-d]pyrimidine-4,7(3H,8H)-dione], the inhibition at 10 µM is 89% at delta-5-desaturase [1] and 97% against delta-5-desaturase [2]. For the same molecule, the inhibition at 1 µM on delta-5-desaturase [3] came to 88%.

In the case of `CCSc1nc2c(=O)n(C)ccc2c(=O)n1-c1ccc(OCC(F)(F)F)cc1` [Example 36, 2-(ethylsulfanyl)-7-methyl-3-[4-(2,2,2-trifluoroethoxy)phenyl]-3,7-dihydropyrido[3,4-d]pyrimidine-4,8-dione], the inhibition at 10 µM on delta-5-desaturase [1] and on delta-5-desaturase [2] was 101% in each case. On delta-5-desaturase [3], the inhibition at 1 µM worked out at 92%.

Consider `CCSc1nc2c(OC)nccc2c(=O)n1-c1ccc(OCC(F)(F)F)cc1` [Example 33, 2-(ethylsulfanyl)-8-methoxy-3-[4-(2,2,2-trifluoroethoxy)phenyl]pyrido[3,4-d]pyrimidin-4(3H)-one], for which the inhibition at 10 µM on delta-5-desaturase [1] was 96%; against delta-5-desaturase [2] it was 101%. The inhibition at 1 µM against delta-5-desaturase [3] was 93%.

With `CCSc1nc2c(=O)[nH]ccc2c(=O)n1-c1ccc(OCC(F)(F)F)cc1` [Example 29, 2-(ethylsulfanyl)-3-[4-(2,2,2-trifluoroethoxy)phenyl]-3,7-dihydropyrido[3,4-d]pyrimidine-4,8-dione], the inhibition at 10 µM was 97% at delta-5-desaturase [1] and 99% against delta-5-desaturase [2]. Moreover, at delta-5-desaturase [3], the inhibition at 1 µM was determined as 96%.

Take `COc1ccc2c(=O)n(-c3ccc(OCC(F)(F)F)cc3)c(SC)nc2n1` [Example 2, 7-methoxy-2-(methylsulfanyl)-3-[4-(2,2,2-trifluoroethoxy)phenyl]pyrido[2,3-d]pyrimidin-4(3H)-one]: the inhibition at 10 µM on delta-5-desaturase [1] came to 94%; on delta-5-desaturase [2] it was 102%. For the same molecule, on delta-5-desaturase [3], the inhibition at 1 µM amounted to 107%.

Regarding `COc1nc2[nH]c(=O)ccc2c(=O)n1-c1ccc(OCC(F)(F)F)cc1` [Example 18, 2-methoxy-3-[4-(2,2,2-trifluoroethoxy)phenyl]pyrido[2,3-d]pyrimidine-4,7(3H,8H)-dione], the values for the inhibition at 10 µM at delta-5-desaturase [1] and against delta-5-desaturase [2] were 84% and 92%, respectively. Moreover, on delta-5-desaturase [3], the inhibition at 1 µM was 95%.

As to `CCOc1nc2c(=O)[nH]ccc2c(=O)n1-c1ccc(OCC(F)(F)F)cc1` [Example 32, 2-ethoxy-3-[4-(2,2,2-trifluoroethoxy)phenyl]-3,7-dihydropyrido[3,4-d]pyrimidine-4,8-dione], the results for the inhibition at 10 µM on delta-5-desaturase [1] and against delta-5-desaturase [2] were 98% and 96%, respectively. In addition, the inhibition at 1 µM against delta-5-desaturase [3] was found to be 88%.

`O=c1ccc2c(=O)n(-c3ccc(OCC(F)(F)F)cc3)c(OCC(F)(F)CO)nc2[nH]1` [Example 17, 2-(2,2-difluoro-3-hydroxypropoxy)-3-[4-(2,2,2-trifluoroethoxy)phenyl]pyrido[2,3-d]pyrimidine-4,7(3H,8H)-dione]: the inhibition at 10 µM was 99% at delta-5-desaturase [1] and 105% at delta-5-desaturase [2]. The inhibition at 1 µM against delta-5-desaturase [3] is 103%.

Consider `CCOc1nc2[nH]c(=O)ccc2c(=O)n1-c1ccc(OCC(F)(F)F)cc1` [Example 9, 2-ethoxy-3-[4-(2,2,2-trifluoroethoxy)phenyl]pyrido[2,3-d]pyrimidine-4,7(3H,8H)-dione], for which the inhibition at 10 µM is 96% on delta-5-desaturase [1] and 99% on delta-5-desaturase [2]. Also, the inhibition at 1 µM against delta-5-desaturase [3] worked out at 97%.

For the molecule `CCSc1nc2c(c(=O)n1-c1ccc(OCC(F)(F)F)cc1)CCC(=O)N2` [Example 24, 2-(ethylsulfanyl)-3-[4-(2,2,2-trifluoroethoxy)phenyl]-5,6-dihydropyrido[2,3-d]pyrimidine-4,7(3H,8H)-dione], the inhibition at 10 µM was 95% at delta-5-desaturase [1] and 101% against delta-5-desaturase [2]. The inhibition at 1 µM against delta-5-desaturase [3] was 109%.

As to `CC(C)Oc1nc2[nH]c(=O)ccc2c(=O)n1-c1ccc(OCC(F)(F)F)cc1` [Example 20, 2-(1-methylethoxy)-3-[4-(2,2,2-trifluoroethoxy)phenyl]pyrido[2,3-d]pyrimidine-4,7(3H,8H)-dione], the inhibition at 10 µM on delta-5-desaturase [1] worked out at 97%; against delta-5-desaturase [2], 104%. In addition, at delta-5-desaturase [3], the inhibition at 1 µM worked out at 97%.

For the origin of these results see US9023858B2, “Substituted pyrido[2,3-d]pyrimidines as delta-5-desaturase inhibitors” (Takeda Pharmaceutical Company Limited, priority 2010, dated 2015).
